From ChEMBL document CHEMBL1121590, “Synthesis and enzymatic and inotropic activity of some new 8-substituted and 6,8-disubstituted derivatives of adenosine cyclic 3',5'-monophosphate” (J Med Chem, 1980)

Legend:
[1] = target: Phosphodiesterase 4 (Homo sapiens, UniProt P27815+Q08499+Q07343+Q08493); details: Oryctolagus cuniculus; Kidney
[2] = Inhibition of cAMP phosphodiesterase preparation from rabbit lung at a substrate concentration of 0.14 uM

Compound	Hydrolysis [1]	I50 [2]
CCCN(CCC)c1ncnc2c1nc(SCc1ccccc1)n2[C@@H]1O[C@@H]2COP(=O)(O)O[C@H]2[C@H]1O	< 0.05	–
CSc1ncnc2c1nc(SC)n2[C@@H]1O[C@@H]2COP(=O)(O)O[C@H]2[C@H]1O	< 0.05	50 µM
CCCCSc1nc2c(N)ncnc2n1[C@@H]1O[C@@H]2COP(=O)(O)O[C@H]2[C@H]1O	< 0.05	25 µM
Nc1ncnc2c1nc(Br)n2[C@@H]1O[C@@H]2COP(=O)(O)O[C@H]2[C@H]1O	< 0.05	–
Cc1ccccc1Sc1nc2c(N)ncnc2n1[C@@H]1O[C@@H]2COP(=O)(O)O[C@H]2[C@H]1O	< 0.05	29 µM
Nc1ncnc2c1nc(SCc1ccccc1)n2[C@@H]1O[C@@H]2COP(=O)(O)O[C@H]2[C@H]1O	< 0.05	53 µM
CCCSc1nc2c(N)ncnc2n1[C@@H]1O[C@@H]2COP(=O)(O)O[C@H]2[C@H]1O	< 0.05	37 µM
O=P1(O)OC[C@H]2O[C@@H](n3c(Sc4ccc(Cl)cc4)nc4c(N5CCCCC5)ncnc43)[C@H](O)[C@@H]2O1	< 0.05	10 µM
CC(C)Sc1nc2c(N)ncnc2n1[C@@H]1O[C@@H]2COP(=O)(O)O[C@H]2[C@H]1O	< 0.05	56 µM
O=P1(O)OC[C@H]2O[C@@H](n3cnc4c(=S)[nH]cnc43)[C@H](O)[C@@H]2O1	1.1	53 µM
Nc1nc2c(=S)[nH]cnc2n1[C@@H]1O[C@@H]2COP(=O)(O)O[C@H]2[C@H]1O	0.3	83 µM
CCN(CC)c1nc2c(Cl)ncnc2n1[C@@H]1O[C@@H]2COP(=O)(O)O[C@H]2[C@H]1O	0.1	80 µM
CCCCNc1ncnc2c1nc(Br)n2[C@@H]1O[C@@H]2COP(=O)(O)O[C@H]2[C@H]1O	< 0.05	–
CNc1ncnc2c1ncn2[C@@H]1O[C@@H]2COP(=O)(O)O[C@H]2[C@H]1O	0.22	50 µM
CCNc1ncnc2c1ncn2[C@@H]1O[C@@H]2COP(=O)(O)O[C@H]2[C@H]1O	0.2	400 µM
CCN(CC)c1ncnc2c1nc(Sc1ccc(Cl)cc1)n2[C@@H]1O[C@@H]2COP(=O)(O)O[C@H]2[C@H]1O	< 0.05	3.5 µM
O=P1(O)OC[C@H]2O[C@@H](n3c(SCc4ccccc4)nc4c(N5CCCCC5)ncnc43)[C@H](O)[C@@H]2O1	< 0.05	4.8 µM
CC(C)CNc1ncnc2c1nc(Sc1ccc(Cl)cc1)n2[C@@H]1O[C@@H]2COP(=O)(O)O[C@H]2[C@H]1O	< 0.05	1.2 µM
O=P1(O)OC[C@H]2O[C@@H](n3c(SCc4ccccc4)nc4c(SCc5ccccc5)ncnc43)[C@H](O)[C@@H]2O1	< 0.05	4.6 µM
Nc1ncnc2c1nc(SCc1cccc([N+](=O)[O-])c1)n2[C@@H]1O[C@@H]2COP(=O)(O)O[C@H]2[C@H]1O	< 0.05	25 µM
O=P1(O)OC[C@H]2O[C@@H](n3cnc4c(SCc5ccccc5)ncnc43)[C@H](O)[C@@H]2O1	0.54	25 µM

Compound	Hydrolysis [1]	I50 [2]
Nc1ncnc2c1nc(SCC(=O)[O-])n2[C@@H]1O[C@@H]2COP(=O)(O)O[C@H]2[C@H]1O.[Na+]	< 0.05	400 µM
CCCCCNc1ncnc2c1nc(SCc1ccccc1)n2[C@@H]1O[C@@H]2COP(=O)(O)O[C@H]2[C@H]1O	< 0.05	16 µM
COc1ccc(Sc2nc3c(N)ncnc3n2[C@@H]2O[C@@H]3COP(=O)(O)O[C@H]3[C@H]2O)cc1	< 0.05	48 µM
O=c1[nH]c2c(Cl)ncnc2n1[C@@H]1O[C@@H]2COP(=O)(O)O[C@H]2[C@H]1O	< 0.05	> 400 µM
Nc1ncnc2c1nc(Cl)n2[C@@H]1O[C@@H]2COP(=O)(O)O[C@H]2[C@H]1O [TOCLADESINE]	< 0.05	59 µM
Nc1nc2c(Cl)ncnc2n1[C@@H]1O[C@@H]2COP(=O)(O)O[C@H]2[C@H]1O	0.74	200 µM
Cc1ccccc1CSc1nc2c(N)ncnc2n1[C@@H]1O[C@@H]2COP(=O)(O)O[C@H]2[C@H]1O	< 0.05	33 µM
CCN(CC)c1ncnc2c1ncn2[C@@H]1O[C@@H]2COP(=O)(O)O[C@H]2[C@H]1O	0.09	67 µM
Nc1ncnc2c1nc(Sc1ccc(Cl)cc1)n2[C@@H]1O[C@@H]2COP(=O)(O)O[C@H]2[C@H]1O	< 0.05	–
CCCCN(C)c1ncnc2c1nc(SCc1ccccc1)n2[C@@H]1O[C@@H]2COP(=O)(O)O[C@H]2[C@H]1O	< 0.05	–
O=P1(O)OC[C@H]2O[C@@H](n3cnc4c(Cl)ncnc43)[C@H](O)[C@@H]2O1	1.2	20 µM
CSc1nc2c(NCc3ccccc3)ncnc2n1[C@@H]1O[C@@H]2COP(=O)(O)O[C@H]2[C@H]1O	0.19	17 µM
CCCCCCNc1ncnc2c1nc(SCc1ccccc1)n2[C@@H]1O[C@@H]2COP(=O)(O)O[C@H]2[C@H]1O	< 0.05	30 µM
O=P1(O)OC[C@H]2O[C@@H](n3c(Sc4ccc(Cl)cc4)nc4c(Nc5ccccc5)ncnc43)[C@H](O)[C@@H]2O1	< 0.05	36 µM
Nc1ncnc2c1nc(SC1CCCCC1)n2[C@@H]1O[C@@H]2COP(=O)(O)O[C@H]2[C@H]1O	< 0.05	13 µM
O=P1(O)OC[C@H]2O[C@@H](n3c(Br)nc4c(NCc5ccccc5)ncnc43)[C@H](O)[C@@H]2O1	< 0.05	61 µM
C=CCSc1nc2c(N)ncnc2n1[C@@H]1O[C@@H]2COP(=O)(O)O[C@H]2[C@H]1O	< 0.05	29 µM
CCCCNc1ncnc2c1nc(SC)n2[C@@H]1O[C@@H]2COP(=O)(O)O[C@H]2[C@H]1O	0.26	53 µM
O=P1(O)OC[C@H]2O[C@@H](n3c(SCc4ccccc4)nc4c(N5CCCC5)ncnc43)[C@H](O)[C@@H]2O1	< 0.05	5 µM
CCSc1nc2c(N)ncnc2n1[C@@H]1O[C@@H]2COP(=O)(O)O[C@H]2[C@H]1O	< 0.05	33 µM
Cc1ccc(CSc2nc3c(N)ncnc3n2[C@@H]2O[C@@H]3COP(=O)(O)O[C@H]3[C@H]2O)cc1	< 0.05	13 µM

Compound	Hydrolysis [1]	I50 [2]
Nc1ncnc2c1nc(SCc1ccc(F)cc1)n2[C@@H]1O[C@@H]2COP(=O)(O)O[C@H]2[C@H]1O	< 0.05	38 µM
CCN(CC)c1ncnc2c1nc(N(CC)CC)n2[C@@H]1O[C@@H]2COP(=O)(O)O[C@H]2[C@H]1O	< 0.05	13 µM
Nc1ncnc2c1nc(S)n2[C@@H]1O[C@@H]2COP(=O)(O)O[C@H]2[C@H]1O	< 0.05	20 µM
Nc1ncnc2c1nc(O)n2[C@@H]1O[C@@H]2COP(=O)(O)O[C@H]2[C@H]1O	< 0.05	150 µM
Nc1ncnc2c1nc(SCc1cccnc1)n2[C@@H]1O[C@@H]2COP(=O)(O)O[C@H]2[C@H]1O	< 0.05	100 µM
Nc1ncnc2c1nc(N)n2[C@@H]1O[C@@H]2COP(=O)(O)O[C@H]2[C@H]1O	0.8	83 µM
O=P1(O)OC[C@H]2O[C@@H](n3c(SCc4ccccc4)nc4c(NCc5ccccc5)ncnc43)[C@H](O)[C@@H]2O1	< 0.05	29 µM
Nc1ncnc2c1nc(Sc1ccc(Br)cc1)n2[C@@H]1O[C@@H]2COP(=O)(O)O[C@H]2[C@H]1O	< 0.05	240 µM
COc1ccc(CSc2nc3c(N)ncnc3n2[C@@H]2O[C@@H]3COP(=O)(O)O[C@H]3[C@H]2O)cc1	< 0.05	30 µM
CSc1ncnc2c1ncn2[C@@H]1O[C@@H]2COP(=O)(O)O[C@H]2[C@H]1O	0.46	80 µM
O=P1(O)OC[C@H]2O[C@@H](n3cnc4c(NCc5ccccc5)ncnc43)[C@H](O)[C@@H]2O1	0.3	130 µM
Nc1ncnc2c1nc(SCc1ccc([N+](=O)[O-])cc1)n2[C@@H]1O[C@@H]2COP(=O)(O)O[C@H]2[C@H]1O	< 0.05	27 µM
Nc1ncnc2c1nc(Sc1ccccc1)n2[C@@H]1O[C@@H]2COP(=O)(O)O[C@H]2[C@H]1O	< 0.05	57 µM
CC(C)CCNc1ncnc2c1nc(SCc1ccccc1)n2[C@@H]1O[C@@H]2COP(=O)(O)O[C@H]2[C@H]1O	< 0.05	2 µM
CSc1nc2c(N)ncnc2n1[C@@H]1O[C@@H]2COP(=O)(O)O[C@H]2[C@H]1O	< 0.05	69 µM
Nc1ncnc2c1nc(SCc1ccc(Cl)cc1)n2[C@@H]1O[C@@H]2COP(=O)(O)O[C@H]2[C@H]1O	< 0.05	11 µM
Nc1ncnc2c1nc(SCCO)n2[C@@H]1O[C@@H]2COP(=O)(O)O[C@H]2[C@H]1O	< 0.05	20 µM
CCN(CC)c1ncnc2c1nc(Cl)n2[C@@H]1O[C@@H]2COP(=O)(O)O[C@H]2[C@H]1O	0.1	18 µM
CCCCNc1ncnc2c1ncn2[C@@H]1O[C@@H]2COP(=O)(O)O[C@H]2[C@H]1O	0.21	33 µM
CCCCCSc1nc2c(N)ncnc2n1[C@@H]1O[C@@H]2COP(=O)(O)O[C@H]2[C@H]1O	< 0.05	15 µM
CCCCNc1ncnc2c1nc(Sc1ccc(Cl)cc1)n2[C@@H]1O[C@@H]2COP(=O)(O)O[C@H]2[C@H]1O	< 0.05	–
